Test results reported in ChEMBL document CHEMBL1201862, “PubChem BioAssay data set” (2004).
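Five concentrations, 48 hours, 96-well plates. Here, GI50 denotes the concentration required for 50% inhibition of growth.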 Activity calls are given as the source filed them. Cut-off read from the data, not from the text of the source: active = GI50 up to about 1.1 µM and inactive = higher.

Legend:
Assay in all cases: growth of human tumour cells (NCI), 48 h
[1] = system: MDA-MB-231
[2] = system: T47D
[3] = system: BT-549
[4] = system: NCI/ADR-RES
[5] = system: SNB-78
[6] = system: HOP-18
[7] = system: DLD-1
[8] = system: DMS-273

Measured: GI50

CC(=O)OC12CC[N+]3(C)CCCCC3C1=Nc1ccccc12 (stereo unspecified)
inactive: [1] > 100 µM | [2] > 100 µM | [3] > 100 µM | [4] > 100 µM

COc1cccc2c1-c1c(OC)cccc1SS2
inactive: [1] 23.7 µM | [3] 27.6 µM | [4] 36.6 µM

CCCCOC(=O)/C(CC(=O)C=C(C)C)=N\NS(=O)(=O)c1ccc(C)cc1
inactive: [5] > 100 µM | [6] > 100 µM | [7] 65.5 µM

Oc1nnc2c(-c3ccccc3)n[nH]c2n1
inactive: [8] > 100 µM | [5] > 100 µM | [7] > 100 µM

C#CCOC(=O)C(N)CS (stereo unspecified)
inactive: [1] > 100 µM | [2] > 100 µM | [3] > 100 µM | [4] > 100 µM

Cc1cc(C)c(O)c(Cc2cccc(Cc3cc(C)cc(C)c3O)c2O)c1
inactive: [1] > 100 µM | [2] > 100 µM | [3] > 100 µM | [4] > 100 µM

O=[N+]([O-])C(=C(NCc1ccccc1)NCc1ccccc1)C(Cl)=C(Cl)Cl
inactive: [1] 29.4 µM | [2] 27.3 µM | [3] 34.4 µM | [4] 45.1 µM

Cn1c(=S)c2nc(SCCCc3ccccc3)[nH]c2n(C)c1=O
inactive: [1] 42.5 µM | [2] 14.6 µM | [3] 45.1 µM | [4] 22.3 µM

Cn1c(=O)c2c(ncn2Cc2ccc(O)c([N+](=O)[O-])c2)n(C)c1=O
inactive: [1] > 100 µM | [2] > 100 µM | [3] > 100 µM | [4] > 100 µM

O=CNCCCN1CCN(CCCNC=O)CC1
inactive: [1] > 100 µM | [2] > 100 µM | [3] > 100 µM | [4] > 100 µM

CCSC1=N/C(=C/c2ccccc2O)C(=O)N1
inactive: [1] 90.6 µM | [2] 60.7 µM | [3] > 100 µM | [4] 45.5 µM

O=C(Nc1ccc(Cl)cc1)c1cc(S(=O)(=O)Nc2n[nH]c(=O)[nH]2)c(SSc2cc(Cl)c(C(=O)Nc3ccc(Cl)cc3)cc2S(=O)(=O)Nc2n[nH]c(=O)[nH]2)cc1Cl
inactive: [1] > 100 µM | [3] > 100 µM | [4] > 100 µM

CC(=O)O[C@]12CCCCCC1C1(O)C(O)CCCCC12 (stereo partly specified)
inactive: [8] > 100 µM | [5] > 100 µM

CSc1nc2c(c(=O)[nH]1)N=C(c1ccccc1)CC(c1ccccc1)N2 (stereo unspecified)
inactive: [1] 18.5 µM | [3] 28.5 µM | [4] 24.4 µM

NCCN1CCCCCc2ccccc21
inactive: [2] > 10 µM | [4] > 10 µM

COc1cc2ccc(C(=O)O)cc2cc1OC
inactive: [8] > 100 µM | [5] > 100 µM | [6] > 100 µM

COc1ccc(/C=N/N=C(\N)NO)c(OC)c1OC
inactive: [1] 65.2 µM | [2] 28.1 µM | [4] 14 µM

Cc1nn(C(=O)c2ccncc2)c2c1C(c1ccccc1O)SC(=N)N2 (stereo unspecified)
inactive: [1] > 10 µM | [2] > 10 µM | [3] > 10 µM | [4] > 10 µM

C=CCOc1ccc(C(=N/NC(=O)c2ccccc2)/N=N/c2ccc(C)cc2)cc1OC
inactive: [1] 24.4 µM | [2] 14.2 µM | [3] 18.3 µM | [4] 35.7 µM

CC(C)C1=CCC2C(=C1)CCC1C(C)(C(=O)O)CCCC21C (stereo unspecified)
inactive: [1] > 100 µM | [2] > 100 µM | [3] > 100 µM | [4] 76.2 µM

O=C(CC/C(CC(=O)c1ccc(Cl)cc1)=N\O)Nc1cccc(Cl)c1
inactive: [8] > 100 µM | [5] > 100 µM | [7] > 100 µM

O=[N+]([O-])c1cnc(N(CCO)CCO)s1
inactive: [1] > 100 µM | [2] > 100 µM | [4] > 100 µM

CSC(=S)Nc1cc(C)ccn1
inactive: [1] 33.1 µM | [2] 58.9 µM | [4] 60.5 µM

CN(C)Cc1cc(C(=O)/C=C/c2ccc(Cl)cc2Cl)cc(CN(C)C)c1O
inactive: [1] 2.11 µM | [2] 5.01 µM | [4] 1.75 µM

CCOP(=O)(OCC)OC1c2[nH]ccc2-c2cc(C(=O)OC)[nH]c2C1OC (stereo unspecified)
inactive: [1] 31.6 µM | [2] 51.8 µM | [3] 36.5 µM | [4] > 100 µM

C=C1C(=O)O[C@@H]2/C=C(/C)[C@@H](OC(C)=O)C[C@@H](O)/C(C)=C\[C@@H](OC(=O)[C@]3(C)O[C@@H]3C)[C@@H]12
inactive: [1] 16.3 µM | [2] 11.1 µM | [3] 5.83 µM | [4] 46.6 µM

CCC1(c2ccc(OC)c(OC)c2)CCN2C(=O)C(O)CC21 (stereo unspecified)
inactive: [1] > 100 µM | [2] > 100 µM | [3] > 100 µM | [4] > 100 µM

CCC(CCCCC1CC[C@H]2CC(=O)C[C@@H]12)OC (stereo partly specified)
inactive: [1] > 100 µM | [2] > 100 µM | [3] > 100 µM | [4] 71.1 µM

CN(/N=C/c1ccccc1C(=O)O)C1=NCCCCN1
inactive: [1] > 100 µM | [2] > 100 µM | [3] > 100 µM | [4] > 100 µM
